{"source": "patent US20090018111A1", "about": "“Novel Antimicrobial Medicament” (priority 2004, published 2009)", "key": {"[1]": {"system": "S. epidermidis IAM1296", "assay": "Sensitivity test (agar dilution)", "format": "cell-based, Staphylococcus epidermidis", "details": "Staphylococcus epidermidis, S. epidermidis IAM1296", "procedure": "(§1) The antibacterial activities were tested against various 18 bacteria (27 standard strains) which are representative bacteria caused clinically infectious disease (Staphylococcus aureus 3 strains, Staphylococcus epidermidis 1 strain, Micrococcus luteus 1 strain, Streptococcus pyogenes 1 strain, Enterococcus faecalis 1 strain, Enterococcus faecium 1 strain, Bacillus subtilis 1 strain, Escherichia coli 3 strains, Klebsiella pneumoniae 1 strain, Proteus mirabilis 1 strain, Proteus vulgaris 2 strains, Pseudomonas aeruginosa 3 strains, Serratia marcescens 2 strains, Enterobacter aerogenes 1 strain, Stenotrophomonas maltophilia 1 strain, Enterobacter cloacae 1 strain, Citrobacter freundii 1 strain, Moraxella catarrhalis 2 strains).\n(§2) According to the standard method of Japan Chemotherapeutic Society (Chemotherapy, vol. […], p 76-79 (1981)) the test was carried out using the agar dilution method. After dissolving test samples in distilled water, agar medium containing the test samples was prepared in such a manner that the final concentration became twice serial dilution by pouring serially diluted combination drug solution or a single drug solution into agar medium. As agar medium was used Mueller Hinton Agar medium (MHA). Then, each strain was cultivated over night at 37° C. in an incubator and suspended in buffered saline solution with gelatin (BSG) in the concentration of about 10^6 CFU/ml. The suspension (about 5 μl) containing test strains was inoculated to the medium containing the test samples by Micro Planter.\n(§3) When the sample is subjected to sensitivity test, this mixed solution was diluted by twice serial dilution method.\n(§4) Furthermore, when the drug is solely used, each test sample was used as it is, and diluted by twice serial dilution method from the maximum concentration to the minimum concentration.\n(§5) FIC index based on MIC value was calculated. […] Namely, when FIC index calculated by the following formula is equal or less than 1, the enhanced effect of the combination drug in said ratio is considered as positive. When FIC index is over 1, the enhanced effect of the combination drug in said ratio is considered as negative.\n(§6) Formula of FIC index: FIC index=(MIC of Drug A in combination/MIC of Drug A alone)+(MIC of Drug B in combination/MIC of Drug B alone) N.C. in tables means being not calculated."}, "[2]": {"system": "C. freundii GN346", "assay": "Sensitivity test (agar dilution)", "format": "cell-based, Citrobacter freundii", "details": "Citrobacter freundii, C. freundii GN346", "procedure": "as §1, §2, §3, §4, §5, §6"}, "[3]": {"system": "E. cloacae GN7471", "assay": "Sensitivity test (agar dilution)", "format": "cell-based, Enterobacter cloacae", "details": "Enterobacter cloacae, E. cloacae GN7471", "procedure": "as §1, §2, §3, §4, §5, §6"}, "[4]": {"system": "P. aeruginosa TL-2667", "assay": "Sensitivity test (agar dilution)", "format": "cell-based, Pseudomonas aeruginosa", "details": "Pseudomonas aeruginosa, P. aeruginosa TL-2667", "procedure": "as §1, §2, §3, §4, §5, §6"}, "[5]": {"system": "P. aeruginosa TL-2666", "assay": "Sensitivity test (agar dilution)", "format": "cell-based, Pseudomonas aeruginosa", "details": "Pseudomonas aeruginosa, P. aeruginosa TL-2666", "procedure": "as §1, §2, §3, §4, §5, §6"}, "[6]": {"system": "P. aeruginosa IFO3451", "assay": "Sensitivity test (agar dilution)", "format": "cell-based, Pseudomonas aeruginosa", "details": "Pseudomonas aeruginosa, P. aeruginosa IFO3451", "procedure": "as §1, §2, §3, §4, §5, §6"}, "[7]": {"system": "P. mirabiris GN2425", "assay": "Sensitivity test (agar dilution)", "format": "cell-based, Proteus mirabilis", "details": "Proteus mirabilis, P. mirabiris GN2425", "procedure": "as §1, §2, §3, §4, §5, §6"}, "[8]": {"system": "E. coli ML1410 RP4", "assay": "microbe, parasite or virus in culture", "format": "cell-based, Escherichia coli", "details": "Escherichia coli, E. coli ML1410 RP4", "procedure": "as §1, §2, §3, §4, §5, §6"}, "[9]": {"system": "M. catarrhalis ATCC25238", "assay": "Sensitivity test (agar dilution)", "format": "cell-based, Moraxella catarrhalis", "details": "Moraxella catarrhalis, M. catarrhalis ATCC25238", "procedure": "as §1, §2, §3, §4, §5, §6"}, "[10]": {"system": "M. catarrhalis ATCC8176", "assay": "Sensitivity test (agar dilution)", "format": "cell-based, Moraxella catarrhalis", "details": "Moraxella catarrhalis, M. catarrhalis ATCC8176", "procedure": "as §1, §2, §3, §4, §5, §6"}, "[11]": {"system": "S. marcescens X 100", "assay": "Sensitivity test (agar dilution)", "format": "cell-based, Serratia marcescens", "details": "Serratia marcescens, S. marcescens X 100", "procedure": "as §1, §2, §3, §4, §5, §6"}, "[12]": {"system": "S. marcescens GN6473", "assay": "Sensitivity test (agar dilution)", "format": "cell-based, Serratia marcescens", "details": "Serratia marcescens, S. marcescens GN6473", "procedure": "as §1, §2, §3, §4, §5, §6"}, "[13]": {"system": "E. faecalis ATCC19433", "assay": "Sensitivity test (agar dilution)", "format": "cell-based, Enterococcus faecalis", "details": "Enterococcus faecalis, E. faecalis ATCC19433", "procedure": "as §1, §2, §3, §4, §5, §6"}}, "note": "Read-outs that look alike come from different tables or passages of the source."}
{"smiles": "C[C@@H](O)[C@H]1C(=O)N2C(C(=O)O)=C(S[C@@H]3CN[C@H](CNS(N)(=O)=O)C3)[C@H](C)[C@H]12", "note": "[DRPM, doripenem]", "values": [{"measurement": "MIC", "setting": "[1]; IAM1296, Concomitant (DRPM:SM = 1:1), read-out: MIC concomitant", "value": 0.031, "unit": "µg/mL"}, {"measurement": "MIC", "setting": "[1]; IAM1296, drug alone, read-out: MIC alone", "value": 0.5, "unit": "µg/mL"}, {"measurement": "MIC", "setting": "[2]; GN346, Concomitant (DRPM:SM = 1:1), read-out: MIC concomitant", "value": 0.063, "unit": "µg/mL"}, {"measurement": "MIC", "setting": "[2]; GN346, drug alone, read-out: MIC alone", "value": 0.063, "unit": "µg/mL"}, {"measurement": "MIC", "setting": "[3]; GN7471, Concomitant (DRPM:SM = 1:1), read-out: MIC concomitant", "value": 0.031, "unit": "µg/mL"}, {"measurement": "MIC", "setting": "[3]; GN7471, drug alone, read-out: MIC alone", "value": 0.031, "unit": "µg/mL"}, {"measurement": "MIC", "setting": "[4]; TL2667, Concomitant (DRPM:SM = 1:1), read-out: MIC concomitant", "value": 2, "unit": "µg/mL"}, {"measurement": "MIC", "setting": "[4]; TL2667, drug alone, read-out: MIC alone", "value": 2, "unit": "µg/mL"}, {"measurement": "MIC", "setting": "[5]; TL2666, Concomitant (DRPM:SM = 1:1), read-out: MIC concomitant", "value": 1, "unit": "µg/mL"}, {"measurement": "MIC", "setting": "[5]; TL2666, drug alone, read-out: MIC alone", "value": 1, "unit": "µg/mL"}, {"measurement": "MIC", "setting": "[6]; IFO3451, Concomitant (DRPM:SM = 1:1), read-out: MIC concomitant", "value": 0.25, "unit": "µg/mL"}, {"measurement": "MIC", "setting": "[6]; IFO3451, drug alone, read-out: MIC alone", "value": 0.5, "unit": "µg/mL"}, {"measurement": "MIC", "setting": "[7]; GN2425, Concomitant (DRPM:SM = 1:1), read-out: MIC concomitant", "value": 0.063, "unit": "µg/mL"}, {"measurement": "MIC", "setting": "[7]; GN2425, drug alone, read-out: MIC alone", "value": 0.063, "unit": "µg/mL"}, {"measurement": "MIC", "setting": "[8]; ML1410RP4, read-out: MIC alone, drug alone", "value": 0.031, "unit": "µg/mL"}, {"measurement": "MIC", "setting": "[8]; ML1410RP4, read-out: MIC concomitant, Concomitant (DRPM:SM = 1:1)", "value": 0.031, "unit": "µg/mL"}, {"measurement": "MIC", "setting": "[9]; ATCC25238, Concomitant (DRPM:SM = 1:1), read-out: MIC concomitant", "value": "≤ 0.002", "unit": "µg/mL"}, {"measurement": "MIC", "setting": "[9]; ATCC25238, drug alone, read-out: MIC alone", "value": 0.004, "unit": "µg/mL"}, {"measurement": "MIC", "setting": "[10]; ATCC8176, Concomitant (DRPM:SM = 1:1), read-out: MIC concomitant", "value": "≤ 0.002", "unit": "µg/mL"}, {"measurement": "MIC", "setting": "[10]; ATCC8176, drug alone, read-out: MIC alone", "value": 0.008, "unit": "µg/mL"}, {"measurement": "MIC", "setting": "[11]; X100, Concomitant (DRPM:SM = 1:1), read-out: MIC concomitant", "value": 0.031, "unit": "µg/mL"}, {"measurement": "MIC", "setting": "[11]; X100, drug alone, read-out: MIC alone", "value": 0.031, "unit": "µg/mL"}, {"measurement": "MIC", "setting": "[12]; GN6473, Concomitant (DRPM:SM = 1:1), read-out: MIC concomitant", "value": 0.063, "unit": "µg/mL"}, {"measurement": "MIC", "setting": "[12]; GN6473, drug alone, read-out: MIC alone", "value": 0.063, "unit": "µg/mL"}, {"measurement": "MIC", "setting": "[13]; ATCC19433, Concomitant (DRPM:SM = 1:1), read-out: MIC concomitant", "value": 1, "unit": "µg/mL"}, {"measurement": "MIC", "setting": "[13]; ATCC19433, drug alone, read-out: MIC alone", "value": 4, "unit": "µg/mL"}]}
